Reference: ChEMBL document CHEMBL4715897, “A new 1-nitro-9-aminoacridine derivative targeting yeast topoisomerase II able to overcome fluconazole-resistance” (2021)
Values after ≈ are worked out from the molar mass of the structure shown. Active and inactive are the calls of the source. The rule behind the calls is not given here.

Columns and labels:
Trichophyton rubrum = assay: Antifungal activity against Trichophyton rubrum assessed as reduction in microbial growth after 48 hrs by microdilution method; assay type: functional
Candida albicans [1] = assay: Antibiofilm activity against Candida albicans at 256 ug/ml relative to control; assay type: functional
Candida albicans [2] = assay: Antifungal activity against Candida albicans ATCC 10231 assessed as reduction in microbial growth; assay type: functional
Nakaseomyces glabratus [3] = assay: Antifungal activity against Candida glabrata ATCC 90030 assessed as reduction in microbial growth; assay type: functional
Pichia kudriavzevii [4] = assay: Antifungal activity against Candida krusei ATCC 6258 assessed as reduction in microbial growth; assay type: functional
Candida parapsilosis [5] = assay: Antifungal activity against Candida parapsilosis ATCC 22019 assessed as reduction in microbial growth; assay type: functional; conditions: Lodderomyces parapsilosis
Saccharomyces cerevisiae [6] = assay: Antifungal activity against Saccharomyces cerevisiae ATCC 9763 assessed as reduction in microbial growth; assay type: functional
Candida albicans [7] = assay: Fungicidal activity against Candida albicans ATCC 10231; assay type: functional
Nakaseomyces glabratus [8] = assay: Fungicidal activity against Candida glabrata DSM 11226; assay type: functional
Pichia kudriavzevii [9] = assay: Fungicidal activity against Candida krusei DSM 6128; assay type: functional
Candida parapsilosis [10] = assay: Fungicidal activity against Candida parapsilosis DSM 5784; assay type: functional; conditions: Lodderomyces parapsilosis
Saccharomyces cerevisiae [11] = assay: Fungicidal activity against Saccharomyces cerevisiae ATCC 9763; assay type: functional
[12] = Ratio of MFC for fungicidal activity against Saccharomyces cerevisiae ATCC 9763 to MIC for antifungal activity against Saccharomyces cerevisiae ATCC 9763; assay type: functional
Candida albicans [13] = assay: Fungicidal activity against Candida albicans ATCC 10231 assessed as bacterial killing at concentration of 2 MIC after 5 hrs relative to control; assay type: functional
Candida albicans [14] = assay: Fungicidal activity against Candida albicans ATCC 10231 assessed as bacterial killing at concentration of MIC after 5 hrs relative to control; assay type: functional
Candida albicans [15] = assay: Fungicidal activity against Candida albicans ATCC 10231 assessed as bacterial killing at concentration of 0.25 MIC after 5 hrs relative to control; assay type: functional
Candida albicans [16] = assay: Fungicidal activity against Candida albicans ATCC 10231 assessed as bacterial killing at concentration of 4 MIC after 1 hrs relative to control; assay type: functional
Candida albicans [17] = assay: Fungicidal activity against Candida albicans ATCC 10231 assessed as bacterial killing at concentration of 2 MIC after 1 hrs relative to control; assay type: functional
Candida albicans [18] = assay: Growth inhibition of Candida albicans ATCC 10231 assessed as reduction in yeast to mycelium formation by measuring reduction in hyphal growth at 0.25 MIC after 3 hrs by light microscopic method relative to control; assay type: functional
Candida albicans [19] = assay: Antibiofilm activity against Candida albicans ATCC 10231 at concentration of 0.25 MIC by XTT assay; assay type: functional, organism-based

O=c1c2cc(O)c(O)c(O)c2[nH]c2cc(O)cc(O)c12
MIC (Trichophyton rubrum): 15.6 µg/mL

CCN(CC)CCCC(C)Nc1c2ccc(Cl)cc2nc2ccc(OC)cc12 (stereo not given) [QUINACRINE]
Activity (Candida albicans [1]): 50%

C[C@@H]1[C@H](O)[C@@H](C)/C=C/C=C/C=C/C=C/C=C/C=C/C=C/[C@H](O[C@@H]2O[C@H](C)[C@@H](O)[C@H](N)[C@@H]2O)C[C@@H]2O[C@](O)(C[C@@H](O)C[C@@H](O)[C@H](O)CC[C@@H](O)C[C@@H](O)CC(=O)O[C@H]1C)C[C@H](O)[C@H]2C(=O)O [AMPHOTERICIN B]
MIC90 (Candida albicans [2]): 0.5 µg/mL
MIC90 (Nakaseomyces glabratus [3]): 1 µg/mL
MIC90 (Pichia kudriavzevii [4]): 1 µg/mL
MIC90 (Candida parapsilosis [5]): 1 µg/mL
MIC90 (Saccharomyces cerevisiae [6]): 0.5 µg/mL
MFC (Candida albicans [7]): 2 µg/mL (≈ 2.16 µM)
MFC (Nakaseomyces glabratus [8]): 2 µg/mL (≈ 2.16 µM)
MFC (Pichia kudriavzevii [9]): 2 µg/mL (≈ 2.16 µM)
MFC (Candida parapsilosis [10]): 2 µg/mL (≈ 2.16 µM)
MFC (Saccharomyces cerevisiae [11]): 2 µg/mL (≈ 2.16 µM)
Ratio [12]: >=1
Activity (Candida albicans [13]): 100%
Activity (Candida albicans [14]): 100%
Activity (Candida albicans [15]): 70%
Activity (Candida albicans [16]): 100%
Activity (Candida albicans [17]): 100%
growth inhibition (GI) (Candida albicans [18]): 100%
Activity (Candida albicans [19]): Active
